# Results taken from patent US7491518B2, “Method of elevating yield of oligosaccharides containing α-galactosyl and anti-candida compositions” (Amano Enzyme Inc., priority 2000, dated 2009).
# Key:
# pathogenic E.coli 0157 = conditions: cited from earlier work
# [1] = biological target: toxin produced by Clostridium difficile (Clostridioides difficile, UniProt P16154); conditions: cited from earlier work
# [2] = test system: Candida albicans IFM40009; test: Persistence of orally administered Candida microorganism in the intestinal tract of mice (viable cell count in cecum and colon); assay type: in vivo; conditions: mouse, 100 mg/animal oral once a day for two weeks, 1 week after forcible administration of Candida suspension
# Source text: A Candida microorganism was given forcibly via an oral administration to a mouse on diet with the oligosacchride containing α-galactosyl obtained in EXAMPLE 3 to test the persistence of the Candida microorganism in an intestinal tract, whereby assessing the anti-candida effect of the oligosacchride containing α-galactosyl.
# (Methods) A test mouse was a 4-week old male mouse of Crj:CD-1 (ICR) line (NIPPON CHARLES RIVER). A preliminary housing was provided to the animal for 1 week while being allowed to access a basal diet and a distilled water ad libitum. The basal diet was a solid chow for mice (MF: ORIENTAL YEAST). After the preliminary housing, the basal diet and the distilled water were given ad libitum continuously, and a control group fed with a sucrose, a positive control group fed with a raffinose, and a treatment group fed with an oligosacchride containing α-galactosyl were provided (5 animals per group) to conduct a forcible oral administration at 100 mg/animal via an oral gavage for two weeks on a once-a-day basis. […]
# The viable cell of the Candida microorganism was counted by applying a Candida microorganism suspension diluted appropriately with a physiological saline onto a Candida GS (EIKEN KAGAKU) plate medium and incubating at 37° C. for 42 to 48 hours followed by counting the colonies formed. […]
# Candida microorganism = conditions: in vitro and in vivo; cited from earlier work
# [3] = cited from earlier work
compound,measurement,setting,value
"OC[C@H]1O[C@H](O[C@@H]2[C@H](O)[C@@H](O)C(O)O[C@@H]2CO)[C@H](O)[C@@H](O)[C@H]1O (stereo partly drawn) [α-1,4 galactobiose]",effect on pathogenic E.coli 0157,pathogenic E.coli 0157,inhibitory and therapeutic effect
"OC[C@H]1O[C@H](O[C@@H]2[C@@H](O)[C@@H](O)O[C@H](CO)[C@@H]2O)[C@H](O)[C@@H](O)[C@H]1O [α-1,3-galactobiose]",effect on toxin produced by Clostridium difficile,[1],neutralizing effect
OC[C@H]1O[C@H](OC[C@H]2O[C@H](O[C@]3(CO)O[C@H](CO)[C@@H](O)[C@@H]3O)[C@H](O)[C@@H](O)[C@@H]2O)[C@H](O)[C@@H](O)[C@H]1O [raffinose],viable cell count of Candida microorganism in the cecum,[2],not changed
same,viable cell count of Candida microorganism in the colon,[2]; compared with sucrose control group,lower
same,effects on a Candida microorganism,Candida microorganism,inhibitory and eradicative effects
same,effect on atopic dermatitis,[3]; in vivo,exerted an effect
same,"side effects observed with an antifungal agent (transient exacerbation of rash, digestive organ signs)",[3]; oral administration,does not cause side effects
